Patent US8785460B2, “Tricyclic compounds and use thereof” (Takeda Pharmaceutical Company Limited, priority 2008, dated 2014)

Test system: not given
Test: not given
Settings: not given
Compound `OC(c1ccc(Cl)c2nc3n(c12)CCCN3c1ccc(Cl)cc1Cl)(C(F)(F)F)C(F)(F)F` [Example 319, 2-[9-Chloro-1-(2,4-dichlorophenyl)-1,2,3,4-tetrahydropyrimido[1,2-a]benzimidazol-6-yl]-1,1,1,3,3,3-hexafluoropropan-2-ol] has a melting point of 237 to 240 °C. `COc1nc(C)c(N2CCCn3c2nc2c(C#N)ccc(C(OC(F)F)C(F)(F)F)c23)c(C)n1` (stereo not drawn) [Example 520, 6-[1-(Difluoromethoxy)-2,2,2-trifluoroethyl]-1-(2-methoxy-4,6-dimethylpyrimidin-5-yl)-1,2,3,4-tetrahydropyrimido[1,2-a]benzimidazole-9-carbonitrile] showed a melting point of 250 to 252 °C. With `CCC(O)c1ccc(Cl)c2nc3n(c12)CCCN3c1ccc(Cl)cc1Cl` (single isomer, unassigned; (-)) [Example 438, (−)-1-[9-Chloro-1-(2,4-dichlorophenyl)-1,2,3,4-tetrahydropyrimido[1,2-a]benzimidazol-6-yl]propan-1-ol] the melting point was 221 to 223 °C. `N#Cc1cccc2nc3n(c12)CCCN3c1ccc(Cl)cc1Cl` [Example 84, 1-(2,4-Dichlorophenyl)-1,2,3,4-tetrahydropyrimido[1,2-a]benzimidazole-6-carbonitrile] gave a melting point of 170 to 171 °C. For `CCN(CC)c1cccc2nc3n(c12)CC(CC(=O)OC)N3c1ccc(Cl)cc1Cl` (stereo not drawn) [Example 72, Methyl [1-(2,4-dichlorophenyl)-5-(diethylamino)-2,3-dihydro-1H-imidazo[1,2-a]benzimidazol-2-yl]acetate], the melting point was 137 to 138 °C. Work on `O=C(c1cccc2nc3n(c12)CCCN3c1ccc(Cl)cc1Cl)N1CC(O)C1` [Example 90, 1-{[1-(2,4-Dichlorophenyl)-1,2,3,4-tetrahydropyrimido[1,2-a]benzimidazol-6-yl]carbonyl}azetidin-3-ol] yielded a melting point of 257 to 258 °C. Work on `COc1nc(C)c(N2CCCn3c2nc2cccc(C(O)C(F)(F)F)c23)c(C)n1` (stereo not drawn) [Example 517, 2,2,2-Trifluoro-1-[1-(2-methoxy-4,6-dimethylpyrimidin-5-yl)-1,2,3,4-tetrahydropyrimido[1,2-a]benzimidazol-6-yl]ethanol] yielded a melting point of 296 to 299 °C. Work on `NC(=O)c1cccc2nc3n(c12)CCCN3c1ccc(Cl)cc1Cl` [Example 83, 1-(2,4-Dichlorophenyl)-1,2,3,4-tetrahydropyrimido[1,2-a]benzimidazole-6-carboxamide] yielded a melting point of 198 to 200 °C. Compound `CCC(O)c1ccc(Cl)c2nc3n(c12)CCCN3c1ccc(Cl)cc1Cl` (single isomer, unassigned; (+)) [Example 439, (+)-1-[9-Chloro-1-(2,4-dichlorophenyl)-1,2,3,4-tetrahydropyrimido[1,2-a]benzimidazol-6-yl]propan-1-ol] has a melting point of 233 to 235 °C. Work on `Cc1nc(N2CCOCC2)ccc1N1CCCn2c1nc1c(Cl)ccc(C(OC(F)F)C(F)(F)F)c12` (stereo not drawn) [Example 296, 9-Chloro-6-[1-(difluoromethoxy)-2,2,2-trifluoroethyl]-1-(2-methyl-6-morpholin-4-ylpyridin-3-yl)-1,2,3,4-tetrahydropyrimido[1,2-a]benzimidazole] yielded a melting point of 191 to 193 °C. In the case of `CCC(CC)c1ccc(Cl)c2nc3n(c12)CCN3C(=O)c1ccc(Cl)nc1` [Example 228, 8-Chloro-1-[(6-chloropyridin-3-yl)carbonyl]-5-(1-ethylpropyl)-2,3-dihydro-1H-imidazo[1,2-a]benzimidazole], the melting point is reported as 205 to 207 °C. `CCC(C)Nc1cccc2nc3n(c12)CCCN3c1ccc(Cl)cc1Cl` (stereo not drawn) [Example 207, 1-(2,4-Dichlorophenyl)-N-(1-methylpropyl)-1,2,3,4-tetrahydropyrimido[1,2-a]benzimidazol-6-amine] gave a melting point of 180 to 181 °C. With `CCN(CC)c1cccc2nc3n(c12)CCCN(C)C3c1ccc(Cl)cc1Cl` (stereo not drawn) [Example 510, 1-(2,4-Dichlorophenyl)-N,N-diethyl-2-methyl-2,3,4,5-tetrahydro-1H-[1,4]diazepino[1,2-a]benzimidazol-7-amine] the melting point was 132 to 133 °C. For `CN(C)Cc1cccc2nc3n(c12)CCCN3c1ccc(Cl)cc1Cl` [Example 87, 1-[1-(2,4-Dichlorophenyl)-1,2,3,4-tetrahydropyrimido[1,2-a]benzimidazol-6-yl]-N,N-dimethylmethanamine], the melting point was 158 to 159 °C. In the case of `CCS(=O)(=O)Cc1ccc(Cl)c2nc3n(c12)CCCN3c1ccc(Cl)cc1Cl` [Example 461, 9-Chloro-1-(2,4-dichlorophenyl)-6-[(ethylsulfonyl)methyl]-1,2,3,4-tetrahydropyrimido[1,2-a]benzimidazole], the melting point is reported as 300 to 302 °C. For `CCN(CC)c1cccc2nc3n(c12)CCCN3c1ccc(Cl)cc1Cl` [Example 20, 1-(2,4-Dichlorophenyl)-N,N-diethyl-1,2,3,4-tetrahydropyrimido[1,2-a]benzimidazol-6-amine], the melting point was 131 to 133 °C. In the case of `Cc1nc(N2CCCCC2)ccc1N1CCCn2c1nc1c(Cl)ccc(C(OC(F)F)C(F)(F)F)c12` (stereo not drawn) [Example 295, 9-Chloro-6-[1-(difluoromethoxy)-2,2,2-trifluoroethyl]-1-(2-methyl-6-piperidin-1-ylpyridin-3-yl)-1,2,3,4-tetrahydropyrimido[1,2-a]benzimidazole], the melting point is reported as 164 to 167 °C. In the case of `OC1CN(Cc2cccc3nc4n(c23)CCCN4c2ccc(Cl)cc2Cl)C1` [Example 91, 1-{[1-(2,4-Dichlorophenyl)-1,2,3,4-tetrahydropyrimido[1,2-a]benzimidazol-6-yl]methyl}azetidin-3-ol], the melting point is reported as 240 to 241 °C. With `CCN(CC)Cc1cccc2nc3n(c12)CCCN3c1ccc(Cl)cc1Cl` [Example 89, N-{[1-(2,4-Dichlorophenyl)-1,2,3,4-tetrahydropyrimido[1,2-a]benzimidazol-6-yl]methyl}-N-ethylethanamine] the melting point was 112 to 114 °C. For `Cc1nc(N2CCCC2)ccc1N1CCCn2c1nc1c(Cl)ccc(C(OC(F)F)C(F)(F)F)c12` (stereo not drawn) [Example 294, 9-Chloro-6-[1-(difluoromethoxy)-2,2,2-trifluoroethyl]-1(2-methyl-6-pyrrolidin-1-ylpyridin-3-yl)-1,2,3,4-tetrahydropyrimido[1,2-a]benzimidazole], the melting point was 233 to 236 °C. In the case of `O=S(=O)(CC(F)(F)F)NC(c1ccc(Cl)c2nc3n(c12)CCCN3c1c(Cl)cc(Cl)cc1Cl)C(F)(F)F` (stereo not drawn) [Example 417, N-{1-[9-Chloro-1-(2,4,6-trichlorophenyl)-1,2,3,4-tetrahydropyrimido[1,2-a]benzimidazol-6-yl]-2,2,2-trifluoroethyl}-2,2,2-trifluoroethanesulfonamide], the melting point is reported as 237 to 239 °C. Compound `Cc1nc(O)nc(C)c1N1CCCn2c1nc1c(Cl)ccc(C(OC(F)F)C(F)(F)F)c12` (stereo not drawn) [Example 215, 5-{9-Chloro-6-[1-(difluoromethoxy)-2,2,2-trifluoroethyl]-3,4-dihydropyrimido[1,2-a]benzimidazol-1(2H)-yl}-4,6-dimethylpyrimidin-2-ol] has a melting point of 208 to 210 °C. `CCC(O)c1ccc(Cl)c2nc3n(c12)CCCN3c1c(C)cc(Cl)cc1Cl` (stereo not drawn) [Example 380, 1-[9-Chloro-1-(2,4-dichloro-6-methylphenyl)-1,2,3,4-tetrahydropyrimido[1,2-a]benzimidazol-6-yl]propan-1-ol] showed a melting point of 210 to 211 °C. In the case of `OC(c1cccc2nc3n(c12)CCCN3c1ccc(Cl)cc1Cl)C1CC1` (stereo not drawn) [Example 95, Cyclopropyl[1-(2,4-dichlorophenyl)-1,2,3,4-tetrahydropyrimido[1,2-a]benzimidazol-6-yl]methanol], the melting point is reported as 208 to 209 °C. For `OC(c1ccc(Cl)c2nc3n(c12)CCN3c1ccc(Cl)cc1Cl)(C1CC1)C1CC1` [Example 430, [8-Chloro-1-(2,4-dichlorophenyl)-2,3-dihydro-1H-imidazo[1,2-a]benzimidazol-5-yl](dicyclopropyl)methanol], the melting point was 238 to 239 °C. Work on `O=C(c1cccc2nc3n(c12)CCCN3c1ccc(Cl)cc1Cl)C1CC1` [Example 199, Cyclopropyl[1-(2,4-dichlorophenyl)-1,2,3,4-tetrahydropyrimido[1,2-a]benzimidazol-6-yl]methanone] yielded a melting point of 189 to 190 °C.

Target: T1, human CRF1 receptor (Homo sapiens, UniProt P34998)
T1 construct: expressed in transfected cells; host or cells: CHO cells (membrane fraction)
T1 sequence (P34998 24-415): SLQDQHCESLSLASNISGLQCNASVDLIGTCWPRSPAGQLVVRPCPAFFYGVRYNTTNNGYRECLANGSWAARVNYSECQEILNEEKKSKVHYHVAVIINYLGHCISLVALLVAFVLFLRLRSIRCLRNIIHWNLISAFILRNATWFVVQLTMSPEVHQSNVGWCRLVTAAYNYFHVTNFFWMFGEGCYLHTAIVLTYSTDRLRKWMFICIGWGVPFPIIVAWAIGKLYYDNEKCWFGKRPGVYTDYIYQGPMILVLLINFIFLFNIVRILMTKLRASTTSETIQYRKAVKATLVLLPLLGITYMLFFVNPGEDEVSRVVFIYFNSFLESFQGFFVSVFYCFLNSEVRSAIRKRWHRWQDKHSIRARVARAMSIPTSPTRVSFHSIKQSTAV
Test: Measurement of CRF Binding Inhibitory Rate (receptor binding experiment with 125I-CRF)
Settings: human CRF1 receptor expressing CHO cellular membrane fraction, 50 pM 125I-CRF, room temperature 1.5 hr, 0.05 nM to 10 μM of compound; read-out: IC50 values (CRF binding inhibition)
Compound `CCC(CC)c1ccc(Cl)c2nc3n(c12)CCN3c1c(C)cc(Cl)cc1OC` [Example 1, 8-Chloro-1-(4-chloro-2-methoxy-6-methylphenyl)-5-(1-ethylpropyl)-2,3-dihydro-1H-imidazo[1,2-a]benzimidazole] has an IC50 of less than 1000 nM. In the case of `CCN(CC)c1ccc(Cl)c2nc3n(c12)CCOC3c1ccc(Cl)cc1Cl` (stereo not drawn) [Example 502, 9-Chloro-1-(2,4-dichlorophenyl)-N,N-diethyl-3,4-dihydro-1H-[1,4]oxazino[4,3-a]benzimidazol-6-amine], the IC50 is reported as less than 1000 nM. `CCC(OC(C)=O)c1ccc(Cl)c2nc3n(c12)CCCN3c1ccc(Cl)cc1Cl` (single isomer, unassigned; (-)) [Example 239, (−)-1-[9-Chloro-1-(2,4-dichlorophenyl)-1,2,3,4-tetrahydropyrimido[1,2-a]benzimidazol-6-yl]propyl acetate] gave an IC50 of less than 1000 nM. `FC(F)(F)C(Cl)c1ccc(Cl)c2nc3n(c12)CCCN3c1c(Cl)cc(Cl)cc1Cl` (stereo not drawn) [Example 412, 9-Chloro-6-(1-chloro-2,2,2-trifluoroethyl)-1-(2,4,6-trichlorophenyl)-1,2,3,4-tetrahydropyrimido[1,2-a]benzimidazole] showed an IC50 of less than 1000 nM.
